For one assay, the target named is T1, OXA-11 (Pseudomonas aeruginosa, UniProt Q06778).
T1 construct: made in house; host or cells: E. coli
As to the kind of experiment: β-Lactamase inhibitory activity, nitrocefin hydrolysis. The class given is biochemical.

Another assay has as its system E. coli. The assay can be described thus: MIC of compounds alone, broth microdilution. The class given is cell-based. The settings on record: Escherichia coli, ECO 190317, beta-lactamases TEM-1, SHV-12, CTX-M-15 OXA-1, read-out: MIC. The procedure: (§1) Method 2: MIC of Compounds and Synergy with Ceftazidime Against Bacterial Isolates (Table 2 and 3)
(§2) Compounds of the present invention were assessed against genotyped bacterial strains alone or in combination with the β-lactam ceftazidime. In the assays, MICs of said compounds, or of ceftazidime at fixed concentrations of said compounds were determined by the broth microdilution method according to the Clinical Laboratory Standards Institute (CLSI—M7-A7). Briefly, compounds alone according to the invention were prepared in DMSO and spotted (2 μL each) on sterile polystyrene plates (Corning, 3788). Compounds and ceftazidime dilutions were prepared in DMSO and spotted (1 μL each) on sterile polystyrene plates (Corning, 3788). Log phase bacterial suspensions were adjusted to a final density of 5×10^5 cfu/mL in cation-adjusted Mueller-Hinton broth (Beckton-Dickinson) and added to each well (98 μL). Microplates were incubated for 16-20 h at 35° C. in ambient air. The MIC of the compounds was defined as the lowest concentration of said compounds that prevented bacterial growth as read by visual inspection. The MIC of ceftazidime at each compound concentration was defined as the lowest concentration of ceftazidime that prevented bacterial growth as read by visual inspection.
In general terms: Dilution methods test growth across graded concentrations, often in twofold steps.

In assay [1] the test system is K. pneumoniae. As to the kind of experiment: MIC of compounds alone, broth microdilution. The class given is cell-based. The settings on record: Klebsiella pneumoniae, alone; KPN 6299; beta-lactamases TEM-1, SHV-11 OXA-163; read-out: MIC. The procedure: as §1, §2
The test system of assay [2] is E. cloacae. As to the kind of experiment: MIC of compounds alone, broth microdilution. It counts as cell-based. The settings on record: Enterobacter cloacae, ECL P99, beta-lactamases AmpC, read-out: MIC. As to the method: as §1, §2
In the next assay the target is T2, OXA-1 (Escherichia coli, UniProt P13661).
T2 construct: made in house; host or cells: E. coli
The assay can be described thus: β-Lactamase inhibitory activity, nitrocefin hydrolysis. The class given is biochemical. Conditions: class (D); 30 min pre-incubation.

The target of a further assay is T3, KPC-2 (Klebsiella pneumoniae, UniProt Q9F663).
T3 construct: made in house; host or cells: E. coli
The description is as above. The class given is biochemical. Conditions: class (A); 30 min pre-incubation.

The next assay addresses T4, CTX-M-15 (Escherichia coli, UniProt Q9EXV5).
T4 construct: made in house; host or cells: E. coli
Described as above. The class given is biochemical. Conditions: class (A); 30 min pre-incubation.

For the next assay, the target named is T5, TEM-1 (Escherichia coli, UniProt P62593).
T5 construct: made in house; host or cells: E. coli
The assay is described as above. The class given is biochemical. The settings on record: class (A); 30 min pre-incubation.

The target in another assay is T6, SHV-1 (Klebsiella pneumoniae, UniProt P0AD64).
T6 construct: made in house; host or cells: E. coli
The description is as above. The class given is biochemical.

For another assay, the target named is AmpC (P99) (Enterobacter cloacae, UniProt P05364). As to the kind of experiment: biochemical. As to the method:
(§3) Method 1: β-Lactamase Inhibitory Activity, Determination of IC50 (Table 1)
(§4) Enzyme activity was monitored by spectrophotometric measurement of nitrocefin (NCF-TOKU-E, N005) hydrolysis at 485 nm, at room temperature and in assay buffer A: 100 mM Phosphate pH7, 2% glycerol and 0.1 mg/mL Bovine serum albumin (Sigma, B4287). Enzymes were cloned in E. coli expression vector, expressed and purified in house using classical procedures. To a transparent polystyrene plate (Corning, 3628) were added in each well 5 μL DMSO or inhibitor dilutions in DMSO and 80 μL enzyme in buffer A. Plates were immediately read at 485 nm in a microplate spectrophotometer (BioTek, PowerWave HT) to enable background subtraction. After 30 min of pre-incubation at room temperature, 15 μL of NCF (200 μM final) were finally added in each well. Final enzyme concentrations were 0.1 nM (TEM-1), 0.075 nM (SHV-1), 0.4 nM (CTX-M-15), 1 nM (KPC-2), 0.2 nM (P99 AmpC), 0.2 nM (CMY-37), 0.4 nM (AmpC P. aeruginosa), 0.2 nM (OXA-1), 1.2 nM (OXA-11), 0.4 nM (OXA-15) and 0.3 nM (OXA-48). After 20 min incubation at room temperature, plates were once again read at 485 nm. Enzyme activity was obtained by subtracting the final signal by the background, and was converted to enzyme inhibition using non inhibited wells. IC50 curves were fitted to a classical Langmuir equilibrium model with Hill slope using XLFIT (IDBS).

The target in the next assay is AmpC (PAE) (Pseudomonas aeruginosa, UniProt P24735). The assay can be described thus: biochemical. The procedure:
as §3, §4

For a further assay, the target named is T7, OXA-15 (Pseudomonas aeruginosa, UniProt Q51574).
T7 construct: made in house; host or cells: E. coli
The assay can be described thus: β-Lactamase inhibitory activity, nitrocefin hydrolysis. It counts as biochemical.

In assay [3] the target is CMY-37 (Citrobacter freundii). The description is as above. The class given is biochemical.
Assay [4] deals with K. pneumoniae. The assay can be described thus: Synergy with ceftazidime: MIC of ceftazidime at fixed concentration of compound. It counts as cell-based. The settings on record: Klebsiella pneumoniae, read-out: MIC of CAZ + compound (4 μg/mL), KPN 6299; beta-lactamases TEM-1, SHV-11 OXA-163. As to the method: as §1, §2
Assay [5] concerns E. cloacae. Described as above. The class given is cell-based. The settings on record: Enterobacter cloacae, ECL P99; beta-lactamases AmpC; read-out: MIC of CAZ + compound (4 μg/mL). As to the method:
as §1, §2

A further assay addresses T8, OXA-48 (Klebsiella pneumoniae, UniProt Q6XEC0).
T8 construct: made in house; host or cells: E. coli
As to the kind of experiment: β-Lactamase inhibitory activity, nitrocefin hydrolysis. It counts as biochemical. The settings on record: class (D); 30 min pre-incubation.

Like-named read-outs stand apart in the source and are kept apart here.

The IC50 is the concentration that gives 50% inhibition. With `O=C1N2C[C@H](c3scnc3[C@H]2c2ncno2)N1OS(=O)(=O)[O-].[Na+]` (relative stereo) [Example 4, Sodium [trans-7-(1,2,4-oxadiazol-5-yl)-9-oxo-3-thia-5,8,10-triaza-tricyclo[6.2.1.0^2,6]undeca-2(6),4-dien-10-yl]sulfate], the IC50 was 6.5 nM against OXA-11; 170 nM at OXA-1; 3.2 nM at KPC-2; 0.64 nM against CTX-M-15; 1.1 nM on TEM-1; 1.4 nM against SHV-1. In addition, the IC50 worked out at 1.1 nM at AmpC (P99); 64 nM at AmpC (PAE); 19 nM against OXA-15; 3.4 nM in assay [3] (class (C), 30 min pre-incubation, read-out: IC50 β-lactamase CMY-37); 0.34 nM on OXA-48. Also, the MIC was 16 µg/mL in the assay on E. coli; more than 32 µg/mL with K. pneumoniae [1]; 32 µg/mL in the assay on E. cloacae [2]; 2 µg/mL with K. pneumoniae [4]; 2 µg/mL in the assay with E. cloacae [5].

As to `O=C(O)C(F)(F)F.O=C1N2C[C@H](c3scnc3[C@H]2c2nnc[nH]2)N1OS(=O)(=O)[O-].[Na+]` (relative stereo) [Example 3, Sodium and 2,2,2-trifluoroacetate [trans-7-(4H-1,2,4-triazol-4-ium-3-yl)-9-oxo-3-thia-5,8,10-triaza-tricyclo[6.2.1.0^2,6]undeca-2(6),4-dien-10-yl]sulfate], the IC50 against OXA-11 worked out at 190 nM; on OXA-1 it was 1000 nM; on KPC-2, 460 nM; against CTX-M-15, 28 nM; against TEM-1 it was 46 nM; against SHV-1 it was 140 nM. Moreover, the half-inhibitory concentration (IC50) amounted to 13 nM on AmpC (P99); 570 nM at AmpC (PAE); 1100 nM on OXA-15; 30 nM in assay [3]; 6.8 nM against OXA-48. In addition, the MIC in the assay with E. coli is 16 µg/mL.

The record behind these values is US10842779B2, “Heterocyclic compounds and their use in preventing or treating bacterial infections” (priority 2015, dated 2020).
